Source: patent publication US7381705B2, “Inhibitors of hepatitis C virus” (The Administrators Of The Tulane Educational Fund, priority 2004, dated 2008)
Where two headings read alike, the source gives them in different places. Ends that are not written are not given here.

Experiments:
[1] = tested on: HCV pseudotype (HIV core proteins, HCV E1 and E2 of strain H77); conditions: for Percent inhibition: 25 μM; for Inhibition of HCV pseudotype infectivity (in words): summary of Tables 7 and 8
HIV-1 = conditions: AIDS patients, clinical trials; cited from earlier work
[2] = HCV H77 1a E2 peptides at ~25 μM, Table 7, virus alone 448,123
[3] = HCV J4 1b E2 peptides at ~25 μM, Table 8, controls as in Table 7

Substance	Percent inhibition [1] [%]	Luciferase units [1, 2]	Inhibition of HCV pseudotype infectivity (in words) [1]	Luciferase units [1, 3]	HIV-1 load (HIV-1)
RCGSGPWITPRCMVDYPY [compound 30]	−46.2	655,040 luciferase units (lumens)	–	–	–
RSELSPLLLSTTQWQVLP [compound 39, RSELSPLLLSTTQWQVLP]	11.6	400,756 luciferase units (lumens)	–	–	–
SIASWAIKWEYVVLLFLL [compound 46, SIASWAIKWEYVVLLFLL]	77.0	103,040 luciferase units (lumens)	inhibitory	–	–
SPVVVGTTDRSGAPTYSW [compound 19, SPVVVGTTDRSGAPTYSW]	32.7	301,406 luciferase units (lumens)	–	–	–
SPVVVGTTDRSGVPTYSW [compound 95, SPVVVGTTDRSGVPTYSW]	−20.1	–	–	538,110 luciferase units (lumens)	–
SSGCPERLASCRRLTDFA [compound 10]	25.4	334,196 luciferase units (lumens)	–	–	–
SSGCPERMASCRPIDWFA [compound 87]	10.8	–	–	399,700 luciferase units (lumens)	–
TDFAQGWGPISYANGSGL [compound 12, TDFAQGWGPISYANGSGL]	6.8	417,706 luciferase units (lumens)	–	–	–
TDRSGVPTYSWGENETDV [compound 96, TDRSGVPTYSWGENETDV]	−21.5	–	–	544,596 luciferase units (lumens)	–
TGFFAALFYAHKFNSSGC [compound 51, TGFFAALFYAHKFNSSGC]	47.1	–	–	237,086 luciferase units (lumens)	–
TGLIHLHQNIVDVQYLYG [compound 43, TGLIHLHQNIVDVQYLYG]	92.8	32,283 luciferase units (lumens)	inhibitory	–	–
TKTCGGPPCNIGGVGNRT [compound 101]	−12.0	–	–	502,096 luciferase units (lumens)	–
TKVCGAPPCVIGGVGNNT [compound 25]	7.2	480,280 luciferase units (lumens)	–	–	–
TSLFSSGASQKIQLVNTN [compound 82, TSLFSSGASQKIQLVNTN]	61.4	–	–	173,156 luciferase units (lumens)	–
TTLPALSTGLIHLHQNIV [compound 42, TTLPALSTGLIHLHQNIV]	19.1	353,516 luciferase units (lumens)	–	–	–
TTLPALSTGLIHLHQNIV [compound 117, TTLPALSTGLIHLHQNIV]	19.8	–	–	359,236 luciferase units (lumens)	–
TYSWGANDTDVFVLNNTR [compound 20, TYSWGANDTDVFVLNNTR]	48.4	231,373 luciferase units (lumens)	–	–	–
TYSWGENETDVMLLNNTR [compound 97, TYSWGENETDVMLLNNTR]	51.2	–	–	218,673 luciferase units (lumens)	–
VGLLTPGAKQNIQLINTN [peptide 4, VGLLTPGAKQNIQLINTN]	97.6	10,620 luciferase units (lumens)	inhibitory	–	–
WMNSTGFTKTCGGPPCNI [compound 100]	−15.6	–	–	518,190 luciferase units (lumens)	–
WMNSTGFTKVCGAPPCVI [compound 24]	19.7	391,886 luciferase units (lumens)	–	–	–
YLYGVGSSIASWAIKWEY [compound 45, YLYGVGSSIASWAIKWEY]	94.5	24,703 luciferase units (lumens)	inhibitory	–	–
YTIFKVRMYVGGVEHRLE [compound 34, YTIFKVRMYVGGVEHRLE]	21.8	354,696 luciferase units (lumens)	–	–	–
enfuvirtide	–	–	–	–	substantially reduce
